Results reported in paper PMC9697446 (International Journal of Molecular Sciences, 2022).

How the values were obtained:
[1] = Oxygen radical absorbance capacity assay (ORAC-FL); details: Trolox equivalent, Trolox = 1; means ± SEM (n = 3)
Source text: The method is based on the measurement of the fluorescence intensity characterizing the degree of destruction of the fluorescence probe under the action of peroxyl radicals.
The peroxyl radical scavenging capacity of the test compounds was characterized in terms of the Trolox equivalent (TE), which is equal to the ratio of the Trolox concentration to the concentration of a test compound when they show equal fluorescence intensities in the assay. The peroxyl radical scavenging capacity of Trolox was set as 1 [67, 68].
2,2´-Azobis(amidinopropane) dihydrochloride (AAPH), (±)-6-hydroxy-2,5,7,8-tetramethylchroman-2-carboxylic acid (Trolox), and fluorescein (FL) were purchased from Sigma-Aldrich. The reaction was carried out at 37 °C in 75 mM K,Na phosphate buffer (pH 7.4), and the final reaction mixture was 200 µL. The test compounds and the Trolox standard were dissolved in DMSO to 10 mM and further diluted in a 75 mM K,Na phosphate buffer (pH 7.4). The final concentrations were 0.1–1 µM for the test compounds and 1–6 µM for the Trolox. The blank was composed of 20 µL of a 75 mM K,Na phosphate buffer (pH 7.4) containing 20% (v/v) DMSO, 120 µL of FL and 60 µL of AAPH, and it was added in each assay. The antioxidant (20 µL) and FL (120 µL, final concentration: 70 nM) solutions were placed in a black 96-well microplate and were preincubated for 15 min at 37 °C. A solution of AAPH (60 µL, final concentration: 12 mM) was then added rapidly using a multichannel pipette. The microplate was immediately placed in the reader, and the fluorescence was recorded every minute for 100 min. The microplate was automatically shaken prior to each reading. The Trolox standard curve was also obtained in each assay. All reactions were carried out in triplicate, and at least three different assays were performed for each sample.
The antioxidant curves (fluorescence vs. time) were first normalized to the curve of the blank (without the antioxidant) corresponding to the same assay, and the area under the fluorescence decay curve (AUC) was calculated. The net AUC corresponding to a sample was calculated by subtracting the AUC corresponding to the blank. Regression equations were calculated by plotting the net AUC against the antioxidant concentration. The ORAC Tolox equivalent value (TE) was obtained by dividing the slope of the latter curve by the slope of the Trolox curve obtained in the same assay. The ability of Trolox to scavenge the peroxyl radical was equal to 1 [64, 65]. […] The data are expressed as means ± SEM.

[2] = ABTS radical cation scavenging assay; details: 1 h incubation, means ± SEM (n = 3); for IC50: 50% reduction of ABTS radical; for ABTS Scavenging Activity, TEAC Value: Trolox equivalent antioxidant capacity
Procedure: The ABTS assay is based on the direct binding of a model ABTS radical cation (2,2′-azino-bis-(3-ethylbenzothiazoline-6-sulfonate), ABTS^•+) by antioxidants. The measurements were performed as previously described in detail.
The radical scavenging activity was expressed as TEAC values (Trolox equivalent antioxidant capacity) and determined as the ratio between the slopes obtained from the linear correlation of the ABTS radical absorbance with the concentrations of the test compounds and Trolox.
The radical scavenging activity of the compounds was assessed using an ABTS radical decolorization assay. The procedure followed the reported protocol with minor modifications. ABTS (2,2ʹ-azino-bis-(3-ethylbenzothiazoline-6-sulfonic acid) diammonium salt) was purchased from TCI (Tokyo, Japan), while potassium persulfate (di-potassium peroxodisulfate), Trolox (6-hydroxy-2,5,7,8-tetramethylchroman-2-carboxylic acid), catechol, and DMSO were received from Sigma-Aldrich Chemical Co. (St. Louis, MO, USA). The ethanol was HPLC grade. Aqueous solutions were prepared using deionized water.
Trolox was used as the standard reference compound. Catechol was used as the positive control. All test and reference compounds were dissolved in DMSO. The final concentration of DMSO in the reaction mixture was 4% (v/v).
The solution of ABTS radical cation (ABTS^•+) was produced by mixing a 7 mM ABTS stock solution with a 2.45 mM aqueous solution of potassium persulfate in equal quantities and allowing them to react for 12–16 h at room temperature in the dark. At the time of activity determination, the ABTS^•+ solution was diluted with ethanol to adjust it to an absorbance value of about 0.80 ± 0.05 at 734 nm. A fresh working solution of ABTS^•+ was prepared for each assay.
The radical scavenging capacity of the compounds was analyzed by mixing 10 μL of test compound with 240 μL of ABTS^•+ working solution. The reduction in absorbance was measured spectrophotometrically at 734 nm using an xMark microplate UV/VIS spectrophotometer (Bio-Rad, Hercules, CA, USA). The reaction was monitored for an hour at 10 min intervals. Data were given for 1 h of incubation of compounds with ABTS^•+. EtOH blanks were run in each assay. The results were obtained from three replicates of each sample and three independent experiments.
The antioxidant capacity as a Trolox equivalent (TEAC values) was determined as the ratio between the slopes obtained from the linear correlation of concentrations of test compounds and Trolox with absorbance of ABTS radical.

porcine liver CES = test: CES inhibition (4-nitrophenyl acetate hydrolysis); assay type: biochemical; details: ± SEM, n = 3;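 also: values are percent inhibition of CES activity not residual activity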
Procedure: (§1) The esterase profile was estimated using the human erythrocyteAChE, the equine serum BChE, and the porcine liver CES.
(§2) Human erythrocyte AChE, equine serum BChE, porcine liver CES, acetylthiocholine iodide (ATCh), butyrylthiocholine iodide (BTCh), 5,5′-dithio-bis-(2-nitrobenzoic acid) (DTNB), 4-nitrophenol acetate (4-NPA), and BNPP were purchased from Sigma-Aldrich (St. Louis, MO, USA).
The assay solution consisted of 0.1 M K/Na phosphate buffer pH 8.0, 25 °C, with the addition of 1 mM 4-nitrophenyl acetate and 0.02 unit/mL of CES. The assays were carried out with a blank containing all components, except CES.
(§3) The test compounds were dissolved in DMSO, and the incubation mixture contained 2% (v/v) of the solvent. Enzyme inhibition was first assessed at a single concentration of 20 µM for each compound after a 5 min incubation at 25 °C in three separate experiments. […] The test compounds were added to the assay solution and preincubated at 25 °C with the enzymes for 5 min, followed by the addition of substrate. A parallel control was made for the assay solution with no inhibitor. Measurements were performed with a FLUOStar Optima microplate reader (BMG Labtech, Ortenberg, Germany). Each experiment was performed in triplicate. The results were expressed as the mean ± SEM. The reaction rates in the presence and absence of the inhibitor were compared, and the percent of residual enzyme activity due to the presence of test compounds was calculated.

EeAChE PAS = biological target: T1, EeAChE PAS (Electrophorus electricus, UniProt O42275); test: biochemical; assay type: binding; details: EeAChE 7 µM, PI 8 µM, means ± SEM (n = 3); for inhibition at 3 µM: compound 3 µM, read-out: PI Displacement, 3 µM; for inhibition at 20 µM: compound 20 µM, read-out: PI Displacement, 20 µM
T1 construct: purchased Sigma-Aldrich type VI-S
Procedure: (§4) PIand donepezil were purchased from Sigma-Aldrich. […] As the source of the enzyme, electric eel (Elecrophorus electricus) AChE (EeAChE, type VI-S, lyophilized powder, Sigma-Aldrich, Saint Louis, MO, USA) was used. The applicability of this enzyme was shown earlier
To determine the percentage of displacement of PI from the EeAChE PAS, EeAChE (with a final concentration of 7 μM) was incubated with the test compound at a concentration of 3 and 20 μM in 1 mM Tris-HCl buffer pH 8.0, 25 °C for 15 min. Next, PIsolution (with a final concentration of 8 μM) was added, the samples were incubated for 15 min, and the fluorescence spectrum (530 nm (exc.) and 600 nm (emiss.)) was taken. Donepezil and decamethonium were used as reference compounds. The blank contained PI of the same concentration in 1 mM Tris-HCl buffer pH 8.0. The measurements were carried out in triplicate on a FLUOStar Optima microplate reader).
The percentage of displacement of PIfrom the peripheral anionic site of AChE was calculated using the following formula:% Displacement = 100 − (IFAChE+Propidium+inhibitor/IFAChE+Propidium) × 100,(1) where IFAChE+Propidium is the fluorescence intensity of the propidium associated with AChE in the absence of the test compound (taken as 100%) and IFAChE+Propidium+inhibitor is the fluorescence intensity of the propidium associated with AChE in the presence of the test compound.

equine serum BChE = biological target: T2, equine serum BChE (Equus caballus, UniProt P81908); test: biochemical; details: IC50 ± SEM, n = 3
T2 construct: the equine serum BChE, and the porcine liver CES; purchased Sigma-Aldrich; host or cells: equine serum
Procedure: as §1, §2
(§5) AChE and BChE activities were measured via the Ellman method. The assay solution consisted of 0.1 M K/Na phosphate buffer pH 7.5, 25 °C with the addition of 0.33 mM DTNB, 0.02 unit/mL of AChE or BChE and 1 mM of substrate (ATCh or BTCh, respectively). The assays were carried out with a reagent blank containing all components (except AChE orBChE) in order to account for the non-enzymatic hydrolysis of the substrate. In addition, an enzyme blank was included that contained all components except substrate to account for non-substrate sulfhydryl groups.
as §3

human erythrocyte AChE = biological target: T3, human erythrocyte AChE (Homo sapiens, UniProt P22303); test: biochemical; details: IC50 ± SEM, n = 3
T3 construct: The esterase profile was estimated using the human erythrocyteAChE; purchased Sigma-Aldrich; host or cells: human erythrocytes
Procedure: as §1, §2, §5, §3

EeAChE = biological target: T4, EeAChE (Electrophorus electricus, UniProt O42275); test: biochemical; details: means ± SEM (n = 3); read-out: EeAChE Inhibition, IC50
T4 construct: purchased Sigma-Aldrich type VI-S
Procedure: We selected AChE from electric eels (Electrophorus electricus) for consistency with our other reports and because of its purity, specific activity, and lower cost compared to human AChE [64].
as §5, §3, §4

T1 sequence (O42275 24-633): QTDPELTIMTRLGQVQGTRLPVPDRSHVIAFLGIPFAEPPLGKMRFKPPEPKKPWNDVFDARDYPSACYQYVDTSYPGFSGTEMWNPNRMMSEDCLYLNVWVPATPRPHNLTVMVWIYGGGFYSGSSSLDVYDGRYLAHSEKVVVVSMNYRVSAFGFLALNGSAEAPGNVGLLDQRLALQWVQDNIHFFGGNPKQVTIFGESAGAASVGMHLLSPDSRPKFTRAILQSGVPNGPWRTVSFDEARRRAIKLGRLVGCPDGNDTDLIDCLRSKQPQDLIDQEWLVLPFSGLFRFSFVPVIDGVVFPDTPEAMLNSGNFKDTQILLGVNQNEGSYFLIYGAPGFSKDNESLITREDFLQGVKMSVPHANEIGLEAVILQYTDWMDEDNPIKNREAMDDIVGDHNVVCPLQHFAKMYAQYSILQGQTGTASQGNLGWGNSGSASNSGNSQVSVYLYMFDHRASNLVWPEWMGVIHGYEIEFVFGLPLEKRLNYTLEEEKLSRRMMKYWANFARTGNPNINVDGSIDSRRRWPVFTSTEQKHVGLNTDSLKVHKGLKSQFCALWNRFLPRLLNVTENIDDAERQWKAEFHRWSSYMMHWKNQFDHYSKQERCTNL
T4 sequence (O42275 24-633): as above
T2 sequence (P81908 whole entry): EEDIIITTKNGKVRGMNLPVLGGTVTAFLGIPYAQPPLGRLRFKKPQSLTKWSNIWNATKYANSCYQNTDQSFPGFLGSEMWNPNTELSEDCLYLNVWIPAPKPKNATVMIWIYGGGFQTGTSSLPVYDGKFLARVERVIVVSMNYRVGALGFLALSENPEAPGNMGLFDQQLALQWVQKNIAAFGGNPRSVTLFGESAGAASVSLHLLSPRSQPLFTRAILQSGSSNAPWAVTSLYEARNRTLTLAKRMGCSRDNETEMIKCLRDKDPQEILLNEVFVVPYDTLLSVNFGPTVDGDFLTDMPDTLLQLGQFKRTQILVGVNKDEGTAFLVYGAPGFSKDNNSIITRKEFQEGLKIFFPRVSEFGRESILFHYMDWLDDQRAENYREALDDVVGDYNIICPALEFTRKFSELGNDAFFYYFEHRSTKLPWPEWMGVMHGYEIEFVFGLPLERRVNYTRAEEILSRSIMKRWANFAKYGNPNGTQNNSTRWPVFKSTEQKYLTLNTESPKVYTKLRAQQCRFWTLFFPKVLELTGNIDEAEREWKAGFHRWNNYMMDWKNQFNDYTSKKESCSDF
T3 sequence (P22303 32-617 isoform P22303-2 limits assumed): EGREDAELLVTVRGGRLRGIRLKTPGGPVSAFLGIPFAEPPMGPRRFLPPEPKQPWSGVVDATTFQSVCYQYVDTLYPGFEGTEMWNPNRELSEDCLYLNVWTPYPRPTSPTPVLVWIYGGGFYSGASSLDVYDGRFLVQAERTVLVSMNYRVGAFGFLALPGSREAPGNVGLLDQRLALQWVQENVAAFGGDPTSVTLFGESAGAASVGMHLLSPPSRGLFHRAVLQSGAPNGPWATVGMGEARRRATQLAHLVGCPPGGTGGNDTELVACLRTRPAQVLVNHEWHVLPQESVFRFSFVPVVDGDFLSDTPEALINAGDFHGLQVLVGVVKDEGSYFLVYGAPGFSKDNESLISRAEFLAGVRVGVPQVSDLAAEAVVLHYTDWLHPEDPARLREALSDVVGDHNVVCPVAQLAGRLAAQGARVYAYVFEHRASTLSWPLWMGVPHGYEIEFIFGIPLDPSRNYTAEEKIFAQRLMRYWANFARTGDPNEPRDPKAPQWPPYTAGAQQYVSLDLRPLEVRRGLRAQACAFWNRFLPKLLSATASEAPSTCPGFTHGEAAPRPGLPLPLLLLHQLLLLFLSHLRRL

Row | Structure (SMILES) | ORAC, TE Value [1] | IC50 [2] [µM] | ABTS Scavenging Activity, TEAC Value [2] | CES inhibition at 20 µM (porcine liver CES) [%] | inhibition at 3 µM (EeAChE PAS) [%] | inhibition at 20 µM (EeAChE PAS) [%] | IC50 (equine serum BChE) [µM] | IC50 (human erythrocyte AChE) [µM] | IC50 (EeAChE) [nM]
1 | Cc1c(C)c2c(c(C)c1O)CCC(C)(C(=O)O)O2 (stereo not shown) [Trolox, 6-hydroxy-2,5,7,8-tetramethylchroman-2-carboxylic acid, reference compound] | 1.00 | 20.4 ± 1.7 | 1.00 | – | – | – | – | – | –
2 | c1ccc2c(c1)[nH]c1ccccc12 [carbazole, reference compound] | – | – | – | 9.4 ± 1.0 | – | – | – | – | –
3 | Oc1ccccc1O [Catechol, catechol, reference compound] | 6.6 ± 0.2 | 16.7 ± 1.2 | 1.20 ± 0.11 | – | – | – | – | – | –
4 | CC1CCc2c(c3cc(C(F)(F)F)ccc3n2CCC(=O)N2c3ccc(N(C)C)cc3Sc3cc(N(C)C)ccc32)C1 (stereo not shown) [Compound 4g] | 6.5 ± 0.1 | 30.8 ± 2.9 | 0.70 ± 0.04 | 1.4 ± 0.2 | 20.9 ± 1.3 | 32.8 ± 0.7 | 20.3 ± 0.21 | 3.56 ± 0.09 | 800 ± 50
5 | CN(C)c1ccc2c(c1)Sc1cc(N(C)C)ccc1N2C(=O)CCn1c2c(c3cc(OC(F)(F)F)ccc31)CCCCC2 [Compound 4l] | 8.4 ± 0.8 | 20.7 ± 1.7 | 0.98 ± 0.09 | 7.6 ± 0.8 | 14.9 ± 0.1 | 17 ± 1.2 | 42.2 ± 2.93 | 15 ± 1.12 | 3400 ± 210
